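Cultured in 96-well plates, cells were exposed to test compound for 48 hours across five concentrations. Abbreviation: GI50, concentration required for 50% inhibition of growth.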 The source made the active and inactive calls. Rule as the data show it: active = GI50 up to about 1.1 µM and inactive = higher.
Key:
Experiment in all cases: NCI anticancer screen, dose series, 48 h
[1] = system: COLO 205
[2] = system: OVCAR-4
[3] = system: MOLT-4
[4] = system: A549
[5] = system: 786-0
[6] = system: HCC 2998
[7] = system: SNB-75
[8] = system: HOP-62
[9] = system: SF-295
[10] = system: HCT-116
[11] = system: SF-539
[12] = system: SK-MEL-5
[13] = system: HOP-92
[14] = system: SK-MEL-2
[15] = system: SK-MEL-28
[16] = system: MDA-MB-231
[17] = system: MDA-MB-435
[18] = system: UACC-257
[19] = system: IGROV-1
[20] = system: HT-29

SMILES | GI50 [1] | GI50 [2] | GI50 [3] | GI50 [4] | GI50 [5] | GI50 [6] | GI50 [7] | GI50 [8] | GI50 [9] | GI50 [10] | GI50 [11] | GI50 [12] | GI50 [13] | GI50 [14] | GI50 [15] | GI50 [16] | GI50 [17] | GI50 [18] | GI50 [19] | GI50 [20]
CCCCCCCCCCCCCCCCCCNc1ccn(C2OC(CO)C(OP(=O)(O)OCC(COP(=O)(O)OCC3OC(n4cc(F)c(NCCCCCCCCCCCCCCCCCC)nc4=O)CC3O)OC(=O)CCCCCCCCCCCCCCC)C2O)c(=O)n1 (configuration not stated) | > 100 µM (inactive) | > 100 µM (inactive) | > 100 µM (inactive) | > 100 µM (inactive) | > 100 µM (inactive) | > 100 µM (inactive) | > 100 µM (inactive) | > 100 µM (inactive) | > 100 µM (inactive) | > 100 µM (inactive) | > 100 µM (inactive) | > 100 µM (inactive) | > 100 µM (inactive) | > 100 µM (inactive) | > 100 µM (inactive) | > 100 µM (inactive) | > 100 µM (inactive) | > 100 µM (inactive) | > 100 µM (inactive) | > 100 µM (inactive)
CC(C)(C)OC(=O)N1CC(CCl)c2ccc(O)cc21 (configuration not stated) | 1.81 µM (inactive) | 0.267 µM (active) | 1.3 µM (inactive) | 3.12 µM (inactive) | 3.74 µM (inactive) | 0.0223 µM (active) | 1.39 µM (inactive) | 3.29 µM (inactive) | 3.65 µM (inactive) | 2.64 µM (inactive) | 2.16 µM (inactive) | 1.35 µM (inactive) | 2.42 µM (inactive) | 1.7 µM (inactive) | 2.09 µM (inactive) | 2.53 µM (inactive) | 1.99 µM (inactive) | 2.01 µM (inactive) | 3.84 µM (inactive) | 3.15 µM (inactive)
O[C@@H]1[C@H](OC2c3ccccc3-c3ccccc32)[C@H](OCc2ccccc2)[C@@H]2OC[C@H]1O2 | > 100 µM (inactive) | 91 µM (inactive) | 34.1 µM (inactive) | 34.6 µM (inactive) | 19.7 µM (inactive) | 75.7 µM (inactive) | – | 25.8 µM (inactive) | > 100 µM (inactive) | 41.5 µM (inactive) | 23 µM (inactive) | > 100 µM (inactive) | > 100 µM (inactive) | > 100 µM (inactive) | > 100 µM (inactive) | 51.3 µM (inactive) | > 100 µM (inactive) | > 100 µM (inactive) | > 100 µM (inactive) | > 100 µM (inactive)
O=[N+]([O-])c1ccc(Oc2c(Cl)cc(S(=O)(=O)N/C(=N\O)Nc3ccc(Cl)cc3)cc2Cl)cc1 | 15.1 µM (inactive) | 3.94 µM (inactive) | 6.11 µM (inactive) | 13.6 µM (inactive) | 11.2 µM (inactive) | 4.1 µM (inactive) | – | 15.2 µM (inactive) | 13.1 µM (inactive) | 10.5 µM (inactive) | 13.5 µM (inactive) | 9.44 µM (inactive) | 2.31 µM (inactive) | 10.9 µM (inactive) | 13.9 µM (inactive) | 11 µM (inactive) | 13.9 µM (inactive) | 10.6 µM (inactive) | 14 µM (inactive) | 14.4 µM (inactive)
O=C(/C=C/c1ccc(O)c(O)c1)OCCc1ccc2ccccc2c1 | 4.59 µM (inactive) | – | 2.2 µM (inactive) | 9.35 µM (inactive) | 8.59 µM (inactive) | 17 µM (inactive) | 1.87 µM (inactive) | 13.2 µM (inactive) | 10.9 µM (inactive) | 5.24 µM (inactive) | 5.83 µM (inactive) | 3.15 µM (inactive) | 6.35 µM (inactive) | 1.29 µM (inactive) | 9.14 µM (inactive) | 10.6 µM (inactive) | 2.54 µM (inactive) | 11 µM (inactive) | 2.32 µM (inactive) | 12.9 µM (inactive)
CC(C)(C)C(=O)CC1(O)C=C(O)C(O)(CC(=O)C(C)(C)C)O1 (configuration not stated) | 21.7 µM (inactive) | 12.8 µM (inactive) | 8.51 µM (inactive) | 61.7 µM (inactive) | 4.86 µM (inactive) | > 100 µM (inactive) | – | 15.5 µM (inactive) | 48.5 µM (inactive) | 4.71 µM (inactive) | 18.8 µM (inactive) | 21.2 µM (inactive) | 29.9 µM (inactive) | 38.7 µM (inactive) | 31.6 µM (inactive) | 55 µM (inactive) | 41.9 µM (inactive) | 42.3 µM (inactive) | 7.13 µM (inactive) | 18.7 µM (inactive)
CC(=O)Oc1cc(OC(C)=O)c2c(c1C)CC[C@@H]1[C@@H]2CC[C@]2(C)[C@@H](OC(C)=O)CC[C@@H]12 | – | – | 11.9 µM (inactive) | 18.5 µM (inactive) | 19.8 µM (inactive) | 20.7 µM (inactive) | 22.5 µM (inactive) | 20.9 µM (inactive) | 23 µM (inactive) | 15.8 µM (inactive) | 16.1 µM (inactive) | 17.1 µM (inactive) | 20.4 µM (inactive) | – | 19 µM (inactive) | 16.1 µM (inactive) | 16.7 µM (inactive) | 17.7 µM (inactive) | 17.2 µM (inactive) | 15.8 µM (inactive)
Cc1cc2c(cc1-c1cc3c(cc1C)C(C(C)C)=C(O)C(=O)/C3=C\Nc1ccccn1)/C(=C/Nc1ccccn1)C(=O)C(O)=C2C(C)C | > 100 µM (inactive) | 34.9 µM (inactive) | 25.7 µM (inactive) | 31.3 µM (inactive) | 52.2 µM (inactive) | 22.5 µM (inactive) | 63.4 µM (inactive) | – | 49.9 µM (inactive) | 64.7 µM (inactive) | 85.1 µM (inactive) | 30.3 µM (inactive) | > 100 µM (inactive) | 37.8 µM (inactive) | 58.2 µM (inactive) | 94.6 µM (inactive) | 43.5 µM (inactive) | > 100 µM (inactive) | 31.1 µM (inactive) | –
CCc1cc2c(c3c1CCC3=O)CC1(Cc3ccc(C)cc3C1)C2 (configuration not stated) | 27.8 µM (inactive) | 33.2 µM (inactive) | 11.5 µM (inactive) | 18.2 µM (inactive) | 96.8 µM (inactive) | 33.9 µM (inactive) | – | > 100 µM (inactive) | 80.2 µM (inactive) | 17.6 µM (inactive) | > 100 µM (inactive) | 18.9 µM (inactive) | 22.7 µM (inactive) | 31.5 µM (inactive) | – | 36.6 µM (inactive) | 33.7 µM (inactive) | 32.2 µM (inactive) | 42.9 µM (inactive) | 18.1 µM (inactive)
O=C(c1cccc(C(=O)c2ccc3c4c(cccc24)C(=O)N(c2ccccc2)C3=O)c1)c1ccc2c3c(cccc13)C(=O)N(c1ccccc1)C2=O | > 100 µM (inactive) | > 100 µM (inactive) | > 100 µM (inactive) | > 100 µM (inactive) | > 100 µM (inactive) | > 100 µM (inactive) | > 100 µM (inactive) | 88.7 µM (inactive) | 71.9 µM (inactive) | > 100 µM (inactive) | > 100 µM (inactive) | > 100 µM (inactive) | 42.3 µM (inactive) | – | > 100 µM (inactive) | 67.1 µM (inactive) | > 100 µM (inactive) | 72.8 µM (inactive) | 63.7 µM (inactive) | > 100 µM (inactive)
CC(=O)O[C@H]1CC[C@@]2(C)C(=CC[C@@H]3[C@@H]2CC[C@]2(C)c4c(C)nn(-c5ccccc5)c4C[C@@H]32)C1 | 15.5 µM (inactive) | 72.6 µM (inactive) | 13.2 µM (inactive) | 35.9 µM (inactive) | 13.6 µM (inactive) | 16.4 µM (inactive) | 15.6 µM (inactive) | 15.5 µM (inactive) | 3.55 µM (inactive) | 31 µM (inactive) | – | 37.2 µM (inactive) | 22.2 µM (inactive) | – | 25.5 µM (inactive) | 25.1 µM (inactive) | 45.7 µM (inactive) | 29.9 µM (inactive) | 43.4 µM (inactive) | 11.5 µM (inactive)
CCOC(=O)NC(OCCN(C)C)(C(F)(F)F)C(F)(F)F | > 100 µM (inactive) | – | > 100 µM (inactive) | > 100 µM (inactive) | > 100 µM (inactive) | > 100 µM (inactive) | > 100 µM (inactive) | > 100 µM (inactive) | > 100 µM (inactive) | > 100 µM (inactive) | > 100 µM (inactive) | > 100 µM (inactive) | > 100 µM (inactive) | > 100 µM (inactive) | > 100 µM (inactive) | > 100 µM (inactive) | > 100 µM (inactive) | > 100 µM (inactive) | > 100 µM (inactive) | > 100 µM (inactive)
CC[C@@]1(CCC(=O)NCCc2c[nH]c3ccccc23)CCC(=O)N2CCc3c([nH]c4ccccc34)[C@H]21 | 24.2 µM (inactive) | 12.9 µM (inactive) | 3.71 µM (inactive) | 8.73 µM (inactive) | 11.7 µM (inactive) | 14.2 µM (inactive) | – | 37 µM (inactive) | 5.13 µM (inactive) | 11.8 µM (inactive) | 12 µM (inactive) | 24.2 µM (inactive) | 79.3 µM (inactive) | 17.1 µM (inactive) | 39.4 µM (inactive) | 40.7 µM (inactive) | 7.36 µM (inactive) | 14 µM (inactive) | 4.04 µM (inactive) | –
COc1ccc(/C(=N/O)c2ccccc2-c2nc3ccccc3c(=O)n2-c2ccc(S(=O)(=O)Nc3ncccn3)cc2)cc1C | 18.9 µM (inactive) | 17.9 µM (inactive) | 12.2 µM (inactive) | 17.4 µM (inactive) | > 10 µM (inactive) | 10.2 µM (inactive) | 14.2 µM (inactive) | 16.1 µM (inactive) | 12.9 µM (inactive) | 12.7 µM (inactive) | 13.2 µM (inactive) | 12.8 µM (inactive) | 8.73 µM (inactive) | – | 14.9 µM (inactive) | 18.4 µM (inactive) | 14.9 µM (inactive) | 17.1 µM (inactive) | 17.8 µM (inactive) | > 10 µM (inactive)

— ChEMBL document CHEMBL1201862, “PubChem BioAssay data set” (2004)
